A short description of this assay: Pre-emergence (experimental example 1) and post-emergence (experimental example 2) herbicidal tests, reported together. To be noted: 336 h; one or more weed species, in one or both of experimental examples 1 (pre-emergence, 250 g/ha) and 2 (post-emergence, 250 g/ha or less); two weeks after treatment, versus untreated control; read-out: reduction in the growth of one or more weed species. Format: in vivo. As to the method: Seed of various broad-leaf and grass weed species were sown and herbicide, dissolved in a mixture of acetone and water, was applied at a rate of 250 g/ha to the soil surface. The said weeds are Amaranthus retroflexus, Abutilon theophrasti, Galium aparine, Ipomoea purpurea, Setaria viridis, Alopecurus myosuroides, Avena fatua and Echinochloa crus-calli. Two weeks after treatment the percentage reduction in plant growth was assessed in comparison with an untreated control. Seed of the various weed species, as listed in experimental example 1, were sown and grown up to a 1-3 leaves stage. A post-emergence application of herbicide, dissolved in a mixture of acetone and water, was applied at a rate of 250 g/ha or less. Two weeks after treatment the percentage reduction in plant growth was assessed, in comparison with an untreated control.
On to `COC=C(Oc1cccc(OC(=COC)C(=O)OC)c1C(=O)O)C(=O)OC` [Compound 1, 2,6-bis(2-methoxy-1-methoxycarbonyl-vinyloxy)benzoic acid], for which the pest or weed control at up to 250 g/ha was at least 80%.
The value for `COC=C(Oc1cccc(COC(C)=O)c1C(=O)O)C(=O)OC` [Compound 2, methyl 2-(3-acetoxymethyl-2-carboxyphenoxy)-3-methoxypropenoate] was at least 80%; that for `C#CCOC(=O)c1c(OC(=COC)C(=O)OC)cccc1OC(=COC)C(=O)OC` [Compound 13, propargyl 2,6-bis(2-methoxy-1-methoxycarbonyl-vinyloxy)benzoate] was at least 80%.
In the case of `COC=C(Oc1cccc(COc2ccccc2)c1C(=O)O)C(=O)OC` [Compound 16, methyl 2-(2-carboxy-3-phenoxymethylphenoxy)-3-methoxypropenoate], the pest or weed control at up to 250 g/ha was at least 80%.
In the case of `COC=C(Oc1cccc(COc2ccc(Cl)cc2)c1C(=O)O)C(=O)OC` [Compound 17, methyl 2-(2-carboxy-3-(4-chlorophenoxymethyl)phenoxy)-3-methoxypropenoate], the pest or weed control at up to 250 g/ha is at least 70%.
As to `COC=C(Oc1cccc(COc2ccc(C#N)cc2)c1C(=O)O)C(=O)OC` [Compound 18, methyl 2-[2-carboxy-3-(4-cyanophenoxymethyl)phenoxy]-3-methoxypropenoate], the pest or weed control at up to 250 g/ha was at least 70%.
As for `COC=C(Oc1cccc(COc2ccc(OC)cc2)c1C(=O)O)C(=O)OC` [Compound 19, methyl 2-[2-carboxy-3-(4-methoxyphenoxymethyl)phenoxy]-3-methoxypropenoate], the pest or weed control at up to 250 g/ha is at least 80%.
Regarding `COC=C(Oc1cccc(COc2ccc(C)cc2)c1C(=O)O)C(=O)OC` [Compound 20, methyl 2-[2-carboxy-3-(4-methylphenoxymethyl)phenoxy]-3-methoxypropenoate], the pest or weed control at up to 250 g/ha was at least 70%.

These data come from patent US20010029239A1, “New herbicidal compositions” (priority 1999, published 2001).
